The values that follow come from ChEMBL document CHEMBL1649285, “In vivo efficacy of 1- and 2-gram human simulated prolonged infusions of doripenem against Pseudomonas aeruginosa” (Antimicrob Agents Chemother, 2009).

Molecules are shown by their SMILES. ≈ marks a conversion by molar mass, not a printed value. Bounds are passed on as bounds.

As usually defined, the MIC is the smallest concentration in the dilution series that meets the test's criterion for growth inhibition.

Assay type in all cases: functional
Test [1] relates to Pseudomonas aeruginosa. Nature of the test: Antimicrobial activity against Pseudomonas aeruginosa isolate 988 by broth microdilution method. (In broth dilution the organism is exposed to a series of concentrations in liquid medium.)
In test [2] the test system is Pseudomonas aeruginosa. The test can be described thus: Antimicrobial activity against Pseudomonas aeruginosa isolate 971 by broth microdilution method.
In test [3] the test system is Pseudomonas aeruginosa. Nature of the test: Antimicrobial activity against Pseudomonas aeruginosa isolate 913 by broth microdilution method.
Test [4] deals with Pseudomonas aeruginosa. Nature of the test: Antimicrobial activity against Pseudomonas aeruginosa isolate 1036 by broth microdilution method.
Test [5] deals with Pseudomonas aeruginosa. Nature of the test: Antimicrobial activity against Pseudomonas aeruginosa isolate 22 by broth microdilution method.
In test [6] the test system is Pseudomonas aeruginosa. The test can be described thus: Antimicrobial activity against Pseudomonas aeruginosa isolate 944 by broth microdilution method.
For test [7], the system named is Pseudomonas aeruginosa. Nature of the test: Antimicrobial activity against Pseudomonas aeruginosa isolate 1050 by broth microdilution method.
Test [8] relates to Pseudomonas aeruginosa. Nature of the test: Antimicrobial activity against Pseudomonas aeruginosa isolate 927 by broth microdilution method.
In test [9] the test system is Pseudomonas aeruginosa. Nature of the test: Antimicrobial activity against Pseudomonas aeruginosa isolate 968 by broth microdilution method.
For test [10], the system named is Pseudomonas aeruginosa. The test can be described thus: Antimicrobial activity against Pseudomonas aeruginosa isolate 821 by broth microdilution method.
Test [11] deals with Pseudomonas aeruginosa. The test can be described thus: Antimicrobial activity against Pseudomonas aeruginosa isolate 878 by broth microdilution method.
The subject of test [12] is Pseudomonas aeruginosa. The test can be described thus: Antimicrobial activity against Pseudomonas aeruginosa isolate 1006 by broth microdilution method.
Test [13] relates to Pseudomonas aeruginosa. Nature of the test: Antimicrobial activity against Pseudomonas aeruginosa isolate 856 by broth microdilution method.
Test [14] deals with Pseudomonas aeruginosa. Nature of the test: Antimicrobial activity against Pseudomonas aeruginosa isolate 1095 by broth microdilution method.
Test [15] relates to Pseudomonas aeruginosa. The test can be described thus: Antimicrobial activity against Pseudomonas aeruginosa isolate 1080 by broth microdilution method.
In test [16] the test system is Pseudomonas aeruginosa. Nature of the test: Antimicrobial activity against Pseudomonas aeruginosa isolate 1060 by broth microdilution method.
Test [17] has as its system Pseudomonas aeruginosa. The test can be described thus: Antimicrobial activity against Pseudomonas aeruginosa isolate 896 by broth microdilution method.
Test [18] deals with Pseudomonas aeruginosa. Nature of the test: Antimicrobial activity against Pseudomonas aeruginosa isolate 1093 by broth microdilution method.
Test [19] deals with Pseudomonas aeruginosa. Nature of the test: Antimicrobial activity against Pseudomonas aeruginosa isolate 1050 by broth microdilution method in presence of beta-lactamase inhibitor Tazobactam.
Test [20] has as its system Pseudomonas aeruginosa. The test can be described thus: Antimicrobial activity against Pseudomonas aeruginosa isolate 944 by broth microdilution method in presence of beta-lactamase inhibitor Tazobactam.
In test [21] the test system is Pseudomonas aeruginosa. The test can be described thus: Antimicrobial activity against Pseudomonas aeruginosa isolate 22 by broth microdilution method in presence of beta-lactamase inhibitor Tazobactam.
The subject of test [22] is Pseudomonas aeruginosa. Nature of the test: Antimicrobial activity against Pseudomonas aeruginosa isolate 1093 by broth microdilution method in presence of beta-lactamase inhibitor Tazobactam.
Test [23] deals with Pseudomonas aeruginosa. The test can be described thus: Antimicrobial activity against Pseudomonas aeruginosa isolate 927 by broth microdilution method in presence of beta-lactamase inhibitor Tazobactam.
Test [24] has as its system Pseudomonas aeruginosa. The test can be described thus: Antimicrobial activity against Pseudomonas aeruginosa isolate 971 by broth microdilution method in presence of beta-lactamase inhibitor Tazobactam.
In test [25] the test system is Pseudomonas aeruginosa. The test can be described thus: Antimicrobial activity against Pseudomonas aeruginosa isolate 1080 by broth microdilution method in presence of beta-lactamase inhibitor Tazobactam.
The subject of test [26] is Pseudomonas aeruginosa. The test can be described thus: Antimicrobial activity against Pseudomonas aeruginosa isolate 896 by broth microdilution method in presence of beta-lactamase inhibitor Tazobactam.
Test [27] relates to Pseudomonas aeruginosa. Nature of the test: Antimicrobial activity against Pseudomonas aeruginosa isolate 878 by broth microdilution method in presence of beta-lactamase inhibitor Tazobactam.
Test [28] deals with Pseudomonas aeruginosa. Nature of the test: Antimicrobial activity against Pseudomonas aeruginosa isolate 1036 by broth microdilution method in presence of beta-lactamase inhibitor Tazobactam.
Test [29] has as its system Pseudomonas aeruginosa. The test can be described thus: Antimicrobial activity against Pseudomonas aeruginosa isolate 821 by broth microdilution method in presence of beta-lactamase inhibitor Tazobactam.
The test system of test [30] is Pseudomonas aeruginosa. Nature of the test: Antimicrobial activity against Pseudomonas aeruginosa isolate 913 by broth microdilution method in presence of beta-lactamase inhibitor Tazobactam.
Test [31] concerns Pseudomonas aeruginosa. Nature of the test: Antimicrobial activity against Pseudomonas aeruginosa isolate 1006 by broth microdilution method in presence of beta-lactamase inhibitor Tazobactam.
The subject of test [32] is Pseudomonas aeruginosa. Nature of the test: Antimicrobial activity against Pseudomonas aeruginosa isolate 968 by broth microdilution method in presence of beta-lactamase inhibitor Tazobactam.
Test [33] relates to Pseudomonas aeruginosa. Nature of the test: Antimicrobial activity against Pseudomonas aeruginosa isolate 1060 by broth microdilution method in presence of beta-lactamase inhibitor Tazobactam.
The test system of test [34] is Pseudomonas aeruginosa. The test can be described thus: Antimicrobial activity against Pseudomonas aeruginosa isolate 1095 by broth microdilution method in presence of beta-lactamase inhibitor Tazobactam.
Test [35] deals with Pseudomonas aeruginosa. Nature of the test: Antimicrobial activity against Pseudomonas aeruginosa isolate 856 by broth microdilution method in presence of beta-lactamase inhibitor Tazobactam.
Test [36] deals with Pseudomonas aeruginosa. Nature of the test: Antimicrobial activity against Pseudomonas aeruginosa isolate 988 by broth microdilution method in presence of beta-lactamase inhibitor Tazobactam.

For `C[C@@H](O)[C@H]1C(=O)N2C(C(=O)O)=C(S[C@@H]3CN[C@H](C(=O)N(C)C)C3)[C@H](C)[C@H]12` [MEROPENEM], the MIC in the test on Pseudomonas aeruginosa [1] is 16 µg/mL (≈ 41.7 µM); against Pseudomonas aeruginosa [2], at least 32 µg/mL; in the test on Pseudomonas aeruginosa [3] it was at least 32 µg/mL; with Pseudomonas aeruginosa [4] it was 4 µg/mL (≈ 10.4 µM); in the test on Pseudomonas aeruginosa [5], 16 µg/mL (≈ 41.7 µM); with Pseudomonas aeruginosa [6], 12 µg/mL (≈ 31.3 µM). Moreover, the MIC in the test on Pseudomonas aeruginosa [7], with Pseudomonas aeruginosa [8], against Pseudomonas aeruginosa [9], against Pseudomonas aeruginosa [10], in the test on Pseudomonas aeruginosa [11] and against Pseudomonas aeruginosa [12] was at least 32 µg/mL in each case. In addition, the MIC against Pseudomonas aeruginosa [13] was at least 32 µg/mL; against Pseudomonas aeruginosa [14] it was 4 µg/mL (≈ 10.4 µM); against Pseudomonas aeruginosa [15], at least 32 µg/mL; against Pseudomonas aeruginosa [16], 4 µg/mL (≈ 10.4 µM); in the test on Pseudomonas aeruginosa [17], 12 µg/mL (≈ 31.3 µM); in the test with Pseudomonas aeruginosa [18], at least 32 µg/mL.

As for `CCN1CCN(C(=O)N[C@@H](C(=O)N[C@@H]2C(=O)N3[C@@H]2SC(C)(C)[C@@H]3C(=O)O)c2ccccc2)C(=O)C1=O` [PIPERACILLIN], the MIC with Pseudomonas aeruginosa [19] was 8 µg/mL; in the test on Pseudomonas aeruginosa [20], 8 µg/mL; in the test with Pseudomonas aeruginosa [21] it was 32 µg/mL; in the test with Pseudomonas aeruginosa [22] it was 6 µg/mL; with Pseudomonas aeruginosa [23] it was 32 µg/mL; in the test with Pseudomonas aeruginosa [24], at least 256 µg/mL. The MIC is 16 µg/mL in the test on Pseudomonas aeruginosa [25]; at least 256 µg/mL with Pseudomonas aeruginosa [26]; at least 256 µg/mL in the test on Pseudomonas aeruginosa [27]; 3 µg/mL with Pseudomonas aeruginosa [28]; 64 µg/mL in the test with Pseudomonas aeruginosa [29]; at least 256 µg/mL in the test with Pseudomonas aeruginosa [30]. In addition, the MIC in the test with Pseudomonas aeruginosa [31] was 16 µg/mL; in the test on Pseudomonas aeruginosa [32] it was 16 µg/mL; with Pseudomonas aeruginosa [33], 4 µg/mL; in the test with Pseudomonas aeruginosa [34], 12 µg/mL; in the test with Pseudomonas aeruginosa [35], at least 256 µg/mL; in the test on Pseudomonas aeruginosa [36], 64 µg/mL.

Turning to `NC[C@H]1O[C@H](O[C@H]2[C@H](O)[C@@H](O[C@H]3O[C@H](CO)[C@@H](O)[C@H](N)[C@H]3O)[C@H](N)C[C@@H]2N)[C@H](N)C[C@@H]1O` [TOBRAMYCIN], the MIC was 64 µg/mL (≈ 137 µM) in the test on Pseudomonas aeruginosa [1]; 1.5 µg/mL (≈ 3.21 µM) in the test on Pseudomonas aeruginosa [2]; 96 µg/mL (≈ 205 µM) in the test with Pseudomonas aeruginosa [3]; 0.125 µg/mL (≈ 0.267 µM) against Pseudomonas aeruginosa [4]; 0.5 µg/mL (≈ 1.07 µM) against Pseudomonas aeruginosa [5]; 96 µg/mL (≈ 205 µM) against Pseudomonas aeruginosa [6]. Moreover, the MIC was found to be 16 µg/mL (≈ 34.2 µM) in the test on Pseudomonas aeruginosa [7]; 3 µg/mL (≈ 6.42 µM) against Pseudomonas aeruginosa [8]; 96 µg/mL (≈ 205 µM) in the test on Pseudomonas aeruginosa [9]; 3 µg/mL (≈ 6.42 µM) in the test on Pseudomonas aeruginosa [10]; 1.5 µg/mL (≈ 3.21 µM) against Pseudomonas aeruginosa [11]; 3 µg/mL (≈ 6.42 µM) against Pseudomonas aeruginosa [12]. Further, the MIC in the test with Pseudomonas aeruginosa [13] turned out to be 32 µg/mL (≈ 68.4 µM); against Pseudomonas aeruginosa [14] it was 2 µg/mL (≈ 4.28 µM); against Pseudomonas aeruginosa [15], 3 µg/mL (≈ 6.42 µM); against Pseudomonas aeruginosa [16], 0.75 µg/mL (≈ 1.6 µM); in the test with Pseudomonas aeruginosa [17], 24 µg/mL (≈ 51.3 µM); in the test on Pseudomonas aeruginosa [18], 2 µg/mL (≈ 4.28 µM).

In the case of `CO/N=C(\C(=O)N[C@@H]1C(=O)N2C(C(=O)[O-])=C(C[N+]3(C)CCCC3)CS[C@H]12)c1csc(N)n1` [CEFEPIME], the MIC against Pseudomonas aeruginosa [1] was found to be 12 µg/mL (≈ 25 µM); against Pseudomonas aeruginosa [2] it was 32 µg/mL (≈ 66.6 µM); in the test on Pseudomonas aeruginosa [3], 12 µg/mL (≈ 25 µM); with Pseudomonas aeruginosa [4], 12 µg/mL (≈ 25 µM); in the test with Pseudomonas aeruginosa [5], 16 µg/mL (≈ 33.3 µM); in the test on Pseudomonas aeruginosa [6] it was 16 µg/mL (≈ 33.3 µM). For the same compound, the MIC against Pseudomonas aeruginosa [7] is 4 µg/mL (≈ 8.32 µM); against Pseudomonas aeruginosa [8], 24 µg/mL (≈ 49.9 µM); in the test with Pseudomonas aeruginosa [9], 32 µg/mL (≈ 66.6 µM); against Pseudomonas aeruginosa [10], over 256 µg/mL; against Pseudomonas aeruginosa [11], 24 µg/mL (≈ 49.9 µM); with Pseudomonas aeruginosa [12], 4 µg/mL (≈ 8.32 µM). In addition, the MIC in the test with Pseudomonas aeruginosa [13] is over 256 µg/mL; against Pseudomonas aeruginosa [15] it was 64 µg/mL (≈ 133 µM); with Pseudomonas aeruginosa [16] it was 2 µg/mL (≈ 4.16 µM); in the test on Pseudomonas aeruginosa [17], 12 µg/mL (≈ 25 µM); against Pseudomonas aeruginosa [18] it was 64 µg/mL (≈ 133 µM).

In the case of `O=C(O)c1cn(C2CC2)c2cc(N3CCNCC3)c(F)cc2c1=O` [CIPROFLOXACIN], the MIC against Pseudomonas aeruginosa [1] was 4 µg/mL (≈ 12.1 µM); against Pseudomonas aeruginosa [2], over 32 µg/mL; in the test with Pseudomonas aeruginosa [4] it was 3 µg/mL (≈ 9.05 µM); against Pseudomonas aeruginosa [6] it was 4 µg/mL (≈ 12.1 µM); against Pseudomonas aeruginosa [7], over 32 µg/mL; against Pseudomonas aeruginosa [8], over 32 µg/mL. Moreover, the MIC with Pseudomonas aeruginosa [9], against Pseudomonas aeruginosa [10], against Pseudomonas aeruginosa [11], in the test on Pseudomonas aeruginosa [13], with Pseudomonas aeruginosa [15] and against Pseudomonas aeruginosa [18] was over 32 µg/mL each time.

In the case of `CC(C)(O/N=C(\C(=O)N[C@@H]1C(=O)N2C(C(=O)[O-])=C(C[n+]3ccccc3)CS[C@H]12)c1csc(N)n1)C(=O)O` [CEFTAZIDIME], the MIC was 6 µg/mL (≈ 11 µM) with Pseudomonas aeruginosa [1]; 48 µg/mL (≈ 87.8 µM) in the test with Pseudomonas aeruginosa [2]; 24 µg/mL (≈ 43.9 µM) against Pseudomonas aeruginosa [3]; 2 µg/mL (≈ 3.66 µM) against Pseudomonas aeruginosa [4]; 16 µg/mL (≈ 29.3 µM) in the test with Pseudomonas aeruginosa [5]; 4 µg/mL (≈ 7.32 µM) in the test on Pseudomonas aeruginosa [6]. The MIC is 3 µg/mL (≈ 5.49 µM) with Pseudomonas aeruginosa [7]; 8 µg/mL (≈ 14.6 µM) with Pseudomonas aeruginosa [8]; 24 µg/mL (≈ 43.9 µM) against Pseudomonas aeruginosa [9]; 64 µg/mL (≈ 117 µM) in the test with Pseudomonas aeruginosa [10]; 12 µg/mL (≈ 22 µM) against Pseudomonas aeruginosa [11]; 4 µg/mL (≈ 7.32 µM) against Pseudomonas aeruginosa [12]. In addition, the MIC is over 256 µg/mL with Pseudomonas aeruginosa [13]; 16 µg/mL (≈ 29.3 µM) against Pseudomonas aeruginosa [14]; 16 µg/mL (≈ 29.3 µM) in the test on Pseudomonas aeruginosa [15]; 2 µg/mL (≈ 3.66 µM) in the test with Pseudomonas aeruginosa [16]; 12 µg/mL (≈ 22 µM) against Pseudomonas aeruginosa [17]; 4 µg/mL (≈ 7.32 µM) in the test with Pseudomonas aeruginosa [18].
